Assay results as given in PubChem BioAssay AID256 (DTP/NCI, 2004).
Toxic doses and inconclusive results are not listed. How the source made its calls: active means survival T/C of 150% or more; inactive means T/C below 125% in these data.

Tested on: CD2F1 mice, L1210 leukemia ip, survival T/C
Test: NCI In Vivo Anticancer Drug Screen. Data for tumor model L1210 Leukemia (intraperitoneal) in CD2F1 (CDF1) mice
Conditions: endpoint: mean survival time, schedule: Q01DX009 (ip), higher = longer survival
Summary of the method: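 Implant tumor; dose compound or vehicle; measure endpoint in both groups; report treated divided by control.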

Measured: T/C

O=S(=O)(/N=C1\C=CC=C\C1=N/S(=O)(=O)c1ccccc1)c1ccccc1
inactive: dose: 100.0 mg/kg/injection, vehicle: saline with Tween-80 95 % of control | dose: 200.0 mg/kg/injection, vehicle: saline with Tween-80 92 % of control | dose: 400.0 mg/kg/injection, vehicle: saline with Tween-80 98 % of control

CC/C(=N/NS(=O)(=O)c1ccc(C)cc1)C(=O)O
inactive: dose: 12.5 mg/kg/injection, vehicle: Klucel (hydroxypropylcellulose) (HPC) 101 % of control | dose: 25.0 mg/kg/injection, vehicle: Klucel (hydroxypropylcellulose) (HPC) 98 % of control | dose: 50.0 mg/kg/injection, vehicle: Klucel (hydroxypropylcellulose) (HPC) 91 % of control | dose: 100.0 mg/kg/injection, vehicle: Klucel (hydroxypropylcellulose) (HPC) 96 % of control | dose: 200.0 mg/kg/injection, vehicle: Klucel (hydroxypropylcellulose) (HPC) 93 % of control | dose: 400.0 mg/kg/injection, vehicle: Klucel (hydroxypropylcellulose) (HPC) 91 % of control
